According to ChEMBL document CHEMBL3351779, “New tetracyclic tacrine analogs containing pyrano[2,3-c]pyrazole: efficient synthesis, biological assessment and docking simulation study” (Eur J Med Chem, 2015):
pIC50, pKi: −log10 of the molar value.

Legend:
Acetylcholinesterase [1] = molecular target: T1, Acetylcholinesterase (Electrophorus electricus, UniProt O42275); experiment: Inhibition of electric eel AChE by Lineweaver-Burk plot
[2] = Neuroprotective activity against H2O2-induced cell death in rat PC12 cells assessed as cell viability at 10 uM after 24 hrs by MTT assay relative to control; type: functional; settings: PC-12, 24 h, read-out: Activity
Cholinesterase = Cholinesterase (Equus caballus, UniProt P81908)
Sequence of Cholinesterase (P81908 whole entry): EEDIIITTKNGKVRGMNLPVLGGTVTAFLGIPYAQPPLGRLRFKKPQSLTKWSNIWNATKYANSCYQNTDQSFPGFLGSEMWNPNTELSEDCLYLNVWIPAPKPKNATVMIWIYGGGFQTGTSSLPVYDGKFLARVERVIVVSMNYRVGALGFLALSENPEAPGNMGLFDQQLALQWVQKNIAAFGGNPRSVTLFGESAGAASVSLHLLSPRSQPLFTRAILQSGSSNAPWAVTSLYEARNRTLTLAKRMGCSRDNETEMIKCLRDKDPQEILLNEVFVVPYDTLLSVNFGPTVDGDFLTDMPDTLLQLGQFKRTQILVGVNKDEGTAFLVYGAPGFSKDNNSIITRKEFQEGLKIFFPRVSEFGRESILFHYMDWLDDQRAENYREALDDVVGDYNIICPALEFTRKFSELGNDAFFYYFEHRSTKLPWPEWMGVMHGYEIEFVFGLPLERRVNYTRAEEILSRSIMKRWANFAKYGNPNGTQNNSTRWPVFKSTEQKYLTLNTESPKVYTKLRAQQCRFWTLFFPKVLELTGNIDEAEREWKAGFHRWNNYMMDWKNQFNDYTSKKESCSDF
Description: Inhibition of equine serum BuChE using butylthiocholine iodide as substrate preincubated for 10 mins followed by substrate addition by Ellman's method

Acetylcholinesterase [3] = molecular target: T1, Acetylcholinesterase
Description: Inhibition of electric eel AChE using acetylthiocholine iodide as substrate preincubated for 10 mins followed by substrate addition by Ellman's method

T1 sequence (O42275 whole entry): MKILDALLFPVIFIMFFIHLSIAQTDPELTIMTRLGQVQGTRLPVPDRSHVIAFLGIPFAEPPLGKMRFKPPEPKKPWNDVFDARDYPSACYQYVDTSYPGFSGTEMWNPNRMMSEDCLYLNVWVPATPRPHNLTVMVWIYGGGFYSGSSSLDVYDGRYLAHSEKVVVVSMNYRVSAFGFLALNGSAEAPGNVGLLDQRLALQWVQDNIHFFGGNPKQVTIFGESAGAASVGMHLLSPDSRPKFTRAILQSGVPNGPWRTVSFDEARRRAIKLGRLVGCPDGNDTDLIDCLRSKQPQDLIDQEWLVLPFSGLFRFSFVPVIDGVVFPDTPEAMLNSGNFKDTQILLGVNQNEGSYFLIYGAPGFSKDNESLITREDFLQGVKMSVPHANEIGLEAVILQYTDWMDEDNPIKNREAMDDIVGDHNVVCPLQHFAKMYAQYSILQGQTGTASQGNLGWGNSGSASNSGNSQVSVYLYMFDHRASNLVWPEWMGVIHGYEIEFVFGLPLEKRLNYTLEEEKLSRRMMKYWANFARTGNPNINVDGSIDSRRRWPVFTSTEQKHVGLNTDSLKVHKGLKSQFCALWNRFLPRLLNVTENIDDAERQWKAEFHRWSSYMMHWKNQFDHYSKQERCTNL

Row | SMILES | pKi (Acetylcholinesterase [1]) | viability at 10 µM [2] [%] | pIC50 (Cholinesterase) | pIC50 (Acetylcholinesterase [3])
1 | COc1ccc(C2c3c(n[nH]c3C)Oc3nc4c(c(N)c32)CCCC4)cc1OC (racemic) | 6.31 | 48.4 | < 4.00 | 6.72
2 | Cc1ccc(C2c3c(n[nH]c3C)Oc3nc4c(c(N)c32)CCCC4)cc1 (racemic) |  |  | 5.35 | 6.12
3 | Cc1[nH]nc2c1C(c1ccccc1F)c1c(nc3c(c1N)CCCC3)O2 (racemic) |  |  | 4.48 | 6.23
4 | Cc1[nH]nc2c1C(c1ccc(F)cc1)c1c(nc3c(c1N)CCCC3)O2 (racemic) |  |  | 4.60 | 6.09
5 | Cc1[nH]nc2c1C(c1cccc([N+](=O)[O-])c1)c1c(nc3c(c1N)CCCC3)O2 (racemic) |  |  | < 4.00 | 5.49
6 | COc1ccc(C2c3c(n[nH]c3C)Oc3nc4c(c(N)c32)CCCC4)cc1 (racemic) |  |  | < 4.00 | 6.51
7 | COc1ccccc1C1c2c(n[nH]c2C)Oc2nc3c(c(N)c21)CCCC3 (racemic) |  |  | < 4.00 | < 5.00
8 | COc1ccc(OC)c(C2c3c(n[nH]c3C)Oc3nc4c(c(N)c32)CCCC4)c1 (racemic) |  |  | < 4.00 | 6.30
9 | COc1cc(C2c3c(n[nH]c3C)Oc3nc4c(c(N)c32)CCCC4)cc(OC)c1OC (racemic) |  |  | < 4.00 | 5.66
10 | Cc1[nH]nc2c1C(c1cccc(Cl)c1Cl)c1c(nc3c(c1N)CCCC3)O2 (racemic) |  |  | < 4.00 | 6.06
11 | Cc1[nH]nc2c1C(c1cccc3ccccc13)c1c(nc3c(c1N)CCCC3)O2 (racemic) |  |  | 4.82 | 6.49
12 | Cc1[nH]nc2c1C(c1cccs1)c1c(nc3c(c1N)CCCC3)O2 (racemic) |  |  | 4.80 | 6.14
13 | O=c1c(O)c(-c2ccc(O)c(O)c2)oc2cc(O)cc(O)c12 [QUERCETIN] |  | 51.6 |  | 
